From patent US8987276B2, “Substituted triazolyl piperazine and triazolyl piperidine derivatives as gamma secretase modulators” (Janssen Pharmaceuticals, Inc., priority 2011, dated 2015) come the findings set out here.

Data set [1] has as its system Aβ42. The data set can be described thus: Screening for γ-secretase-modulating activity: Aβ42 in supernatant of SKNBE2 cells carrying APP 695-wild type (Alphalisa). Particulars: Homo sapiens, overnight incubation, cell supernatant. The format is cell-based. As to the method:
(§1) Screening was carried out using SKNBE2 cells carrying the APP 695-wild type, grown in Dulbecco's Modified Eagle's Medium/Nutrient mixture F-12 (DMEM/NUT-mix F-12) (HAM) provided by Invitrogen (cat no. 10371-029) containing 5% Serum/Fe supplemented with 1% non-essential amino acids, 1-glutamine 2 mM, Hepes 15 mM, penicillin 50 U/ml (units/ml) en streptomycin 50 µg/ml. Cells were grown to near confluency.
(§2) The screening was performed using a modification of the assay as described in Citron et al (1997) Nature Medicine 3: 67. Briefly, cells were plated in a 384-well plate at 10^4 cells/well in Ultraculture (Lonza, BE12-725F) supplemented with 1% glutamine (Invitrogen, 25030-024), 1% non-essential amino acid (NEAA), penicillin 50 U/ml en streptomycin […] in the presence of test compound at different test concentrations. The cell/compound mixture was incubated overnight at 37° C., 5% CO2. The next day the media were assayed by two sandwich immuno-assays, for Aβ42 and Aβtotal.
(§3) Aβtotal and Aβ42 concentrations were quantified in the cell supernatant using the Aphalisa technology (Perkin Elmer). Alphalisa is a sandwich assay using biotinylated antibody attached to streptavidin coated donorbeads and antibody conjugated to acceptor beads. In the presence of antigen, the beads come into close proximity. The excitation of the donor beads provokes the release of singlet oxygen molecules that trigger a cascade of energy transfer in the acceptor beads, resulting in light emission.
(§4) To quantify the amount of Aβ42 in the cell supernatant, monoclonal antibody specific to the C-terminus of Aβ42 (JRF/cAB42/26) was coupled to the receptor beads and biotinylated antibody specific to the N-terminus of Aβ (JRF/ABN/25) was used to react with the donor beads. T quantify the amount of Aβtotal in the cell supernatant, monoclonal antibody specifc to the N-terminus of Aβ (JRF/AβN/25) was coupled to the receptor beads and biotinylated antibody specific to the mid region of Aβ (biotinylated 4G8) was used to react with the donor beads.
(§5) To obtain the values reported in Table 3, the data are calculated as percentage of the maximum amount of amyloid Beta 42 measured in the absence of the test compound. The sigmoidal dose response curves were analyzed using non-linear regression analysis with percentage of the control plotted against the log concentration of the compound. A 4-parameter equation was used to determine the IC50.
In general terms: In Alpha technology, singlet oxygen from a donor bead excites a nearby acceptor bead.

In data set [2] the test system is Aβtotal. The data set can be described thus: Screening for γ-secretase-modulating activity: Aβtotal in supernatant of SKNBE2 cells carrying APP 695-wild type (Alphalisa). The format is cell-based. Particulars: Homo sapiens, overnight incubation, cell supernatant. As to the method:
as §1, §2, §3, §4, §5

Data set [3] relates to Aβ42. The data set can be described thus: In vivo efficacy: brain soluble Aβ42 lowering in non-transgenic animals (ELISA). Details: species or system mouse. The following applies: dose 30 mg/kg oral dosing; brain soluble fraction, 4 h after dose; untreated animals (Ctrl) set at 100. The source says: (§6) To determine whether acute administration of an Aβ42 lowering agent would reduce Aβ42 levels in vivo, non-transgenic rodents, e.g. mice or rats were used. Animals treated with the Aβ42 lowering agent were examined and compared to those untreated or treated with vehicle and brain levels of soluble Aβ42 and total Aβ were quantitated by standard techniques, for example, using ELISA. Treatment periods varied from hours (h) to days and were adjusted based on the results of the Aβ42 lowering once a time course of onset of effect could be established.
(§7) A typical protocol for measuring Aβ42 lowering in vivo is shown but it is only one of many variations that could be used to optimize the levels of detectable A3. For example, Aβ42 lowering compounds were formulated in 20% of Captisol® (a sulfobutyl ether of β-cyclodextrin) in water or 20% hydroxypropyl 0 cyclodextrin. The Aβ42 lowering agents were administered as a single oral dose or by any acceptable route of administration to overnight fasted animals. After 4 h, the animals were sacrificed and Aβ42 levels were analysed.
(§8) Blood was collected by decapitation and exsanguinations in EDTA-treated collection tubes. […] The left hemisphere was stored at −18° C. for quantitative analysis of test compound levels. […]
(§9) Mouse brains from non-transgenic animals were resuspended in 8 volumes of 0.4% DEA (diethylamine)/50 mM NaCl containing protease inhibitors (Roche-11873580001 or 04693159001) per gram of tissue, e.g. for 0.158 g brain, add 1.264 ml of 0.4% DEA. […] Nine parts of supernatant were neutralized with 1 part 0.5 M Tris-HCl pH 6.8 and used to quantify Aβtotal and Aβ42.
(§10) To quantify the amount of Aβtotal and Aβ42 in the soluble fraction of the brain homogenates, Enzyme-Linked-Immunosorbent-Assays were used. […] Following this incubation and subsequent wash steps the ELISA for Aβ42 quantification was finished by addition of Quanta Blu fluorogenic peroxidase substrate according to the manufacturer's instructions (Pierce Corp., Rockford, Il). A reading was performed after 10 to 15 min (excitation 320 nm/emission 420 nm). […]
On the technique in general: In an ELISA, binding on a coated surface is turned into a signal by an enzyme label.

In data set [4] the test system is Aβtotal. The data set can be described thus: In vivo efficacy: brain soluble Aβtotal in non-transgenic animals (ELISA). Details: species or system mouse. The following applies: dose 30 mg/kg oral dosing; brain soluble fraction, 4 h after dose; untreated animals (Ctrl) set at 100.
Source text: as §6, §7, §8, §9, §10

For orientation: pIC50 means the IC50 on a negative log10 scale, so that one unit is a factor of ten. Lower therefore signals a high IC50. The term melting point denotes the temperature, or range, at which the solid turns liquid.

SMILES strings stand for the structures. pIC50: −log10 of the molar value. Where only a bound is given, the exact number is not on record here.

Consider `COc1ccc(N2CCN(c3nc(Nc4ccccc4C)n(C)n3)CC2(C)C)cc1` [Compound 1, 3-[4-(4-methoxyphenyl)-3,3-dimethyl-1-piperazinyl]-1-methyl-N-(2-methylphenyl)-1H-1,2,4-triazol-5-amine], for which the melting point is 156.8 °C. The pIC50 in the data set on Aβ42 [1] is 7.30. Moreover, the pIC50 with Aβtotal [2] is less than 5.00. The “Aβ42 (% vs Ctrl)_Mean” value in the data set on Aβ42 [3] came out at 50 % vs Ctrl. In the data set on Aβtotal [4], the “Aβtotal (% vs Ctrl)_Mean” value is recorded as 107 % vs Ctrl.
